Measurements published in patent US20090012115A1 (Portola Pharmaceuticals, Inc., priority 2007, published 2009).

How the values were obtained:
P2Y12 ADP receptor = P2Y12 ADP receptor (Homo sapiens, UniProt Q9H244); conditions: cited from earlier work
[1] = compared with clopidogrel; cited from earlier work
[2] = cited from earlier work
preformed thrombi = test: Thrombus stability / dethrombosis of preformed thrombi; format: cell-based
Text: The addition of a TP antagonist to preformed thrombi caused dethrombosis (FIG. 5A).

platelets [3] = conditions: cited from earlier work
[4] = test system: platelets recruited on the collagen surface; test: Real time perfusion chamber thrombosis assay (whole blood over collagen-coated chamber, fluorescent platelets); format: cell-based, human; conditions: for interaction with antithrombotic activity of clopidogrel: 12 healthy individuals on clopidogrel 75 mg/d, ifetroban spiked into whole blood, aspirin 325 mg/d over the third week; for antithrombotic activity versus aspirin: 100 nM or 350 nM spiked in vitro
Procedure: The experiment was performed by perfusing whole blood anticoagulated with factor Xa inhibitor (10 μM) through a human collagen type III-coated perfusion chamber. Platelets were fluorescently labeled in vitro using Rhodamine 6G (1.25 μg/ml final concentration), and thrombosis was monitored in real time by measuring the amount of fluorescent platelets recruited on the collagen surface using fluorescence microscopy. The results are depicted in FIG. 3.
The experiments are performed in the real time thrombosis perfusion chamber device. In this system, the real time thrombotic process triggered by perfusion of Factor Xa anticoagulated whole blood is studied using a collagen coated perfusion chamber at arterial shear rates.
A dose response study of the antithrombotic and anti-aggregatory effects of vehicle control, indomethacin (from 10 nM to 10 uM), and ifetroban (from 10 nM to 3 uM) spiked in vitro in the blood of aspirin-intolerant individuals before, and after treatment with clopidogrel (75 mg/d for a minimum of 5 days, n≧10) is performed. Experiments are performed in the real time perfusion chamber assay under arterial shear rates conditions. […] By using indomethacin we can confirm that Cox-1 inhibition indeed can provide additional antithrombotic properties; however, the intolerance prevents the use of a COX-1 inhibitor.
Real time perfusion chamber assays (RTTP) were performed using blood anticoagulated with Fxa inhibitor (10 uM 034) and perfused through collagen-coated capillaries (1100/sec). Thrombus formation on the collagen surface was monitored in real time using fluorescence microscopy to detect fluorescently labeled (R6G) platelets.

platelets [5] = test: Collagen-induced platelet aggregation (light transmittance aggregometry); format: cell-based, human; conditions: for anti-aggregatory activity, collagen-induced platelet aggregation: 1 μM, 100 nM, 350 nM
Procedure: PRP-induced platelet aggregation are performed with arachidonic acid (between 200 μM and 1 mM), U46619 (a TP agonist) (between 0.5 μM and 5 μM) and collagen (around 4 μg/ml) as platelet agonists. Indomethacin and
(§1) Light transmittance aggregometry (LTA) assays were performed by standard procedures, initiating platelet aggregation with collagen or arachidonic acid.

platelets [6] = test: Arachidonic acid-induced platelet aggregation (light transmittance aggregometry); format: cell-based, human; conditions: healthy volunteers and AERD patients; 1 μM, 350 nM, 100 nM; FIGS. 10A and 10B
Procedure: as §1

[7] = test system: platelet recruitment on the injured vessel wall; test: Intravital microscopy, ferric chloride injury of mesenteric arteries; format: in vivo, mice; conditions: Example 5; for antithrombotic activity in P2Y12 heterozygous animals: P2Y12 heterozygous mice; for antithrombotic activity in wild type animals: wild type mice
Procedure: The methodology utilized is intravital microscopy. In this system, injury of the mesenteric arteries is performed by topical application of a filter paper that has been previously soaked into a ferric chloride solution. Monitoring of the recruitment of fluorescently labeled platelets on the injured vessel wall is performed in real time using an inverted fluorescent microscope connected to a computer.

leukotrienes = test: In vivo determination of the levels of leukotrienes; design: species or system mice; conditions: Example 5; treated animals
Text: In vivo monitoring of gastrointestinal bleeding and determination of the levels of leukotrienes will be performed.

[8] = Gresele et al.; cited from earlier work
coronary arteries = coronary arteries of dogs; cited from earlier work
[9] = HOT trial, hypertensive patients, 75 mg/d vs placebo

P2Y12 ADP receptor, sequence (Q9H244 whole entry): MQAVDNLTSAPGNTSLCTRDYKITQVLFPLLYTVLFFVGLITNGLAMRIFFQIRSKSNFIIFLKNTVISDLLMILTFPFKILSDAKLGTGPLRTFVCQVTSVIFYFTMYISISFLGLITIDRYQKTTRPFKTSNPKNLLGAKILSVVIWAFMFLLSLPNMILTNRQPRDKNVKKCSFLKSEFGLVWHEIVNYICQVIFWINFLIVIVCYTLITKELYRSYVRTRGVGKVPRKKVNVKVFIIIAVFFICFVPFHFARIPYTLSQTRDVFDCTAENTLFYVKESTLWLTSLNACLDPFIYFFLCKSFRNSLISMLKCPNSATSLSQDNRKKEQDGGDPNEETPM

CNc1cc2[nH]c(=O)n(-c3ccc(NC(=O)NS(=O)(=O)c4ccc(Cl)s4)cc3)c(=O)c2cc1F
de-aggregation of preformed thrombi (P2Y12 ADP receptor): de-aggregate preformed thrombi | inhibition of ADP-mediated platelet aggregation (P2Y12 ADP receptor): reversible inhibitor | pharmacokinetic properties [1]: superior pharmacokinetic properties to clopidogrel

O=C(O)CC/C=C\CC[C@@H]1[C@@H](N2CCCCC2)[C@@H](O)C[C@@H]1OCc1ccc(-c2ccccc2)cc1 [GR 32191, [1R-[1α(Z),2β,3β,5α]]-(+)-7-[5-([1,1′-biphenyl]-4-ylmethoxy)-3-hydroxy-2-(1-piperidinyl)cyclopentyl]-4-heptenoic acid]
prevention of restenosis ([2]; CARPORT trial): lack activity in the prevention of restenosis

CCCCC[C@H](O)/C=C/[C@H]1C(=O)C[C@H](O)[C@@H]1C/C=C\CCCC(=O)O [PGD2, prostaglandin D2]
dethrombotic activity (preformed thrombi; physiological concentrations added to aspirinated blood, FIG. 5C): induced a profound dethrombotic activity

O=C(O)COc1ccc(CCNS(=O)(=O)c2ccccc2)cc1 [Sulotroban]
restenosis following PTCA ([2]; M-HEART-II study, 752 patients): no different than aspirin or placebo | clinical events (death, MI or clinically important restenosis) ([2]; M-HEART-II study): inferior to aspirin

CCCCC[C@H](O)/C=C/[C@@H]1[C@@H](C/C=C\CCCC(=O)O)[C@H]2CO[C@@H]1C2 [U46619]
thrombus stability (preformed thrombi; TXA2 mimetic, FIG. 5B): can promote thrombus stability

COC(=O)[C@H](c1ccccc1Cl)N1CCc2sccc2C1 [clopidogrel]
efficacy versus aspirin ([2]; CAPRIE trial): more efficacious than aspirin | relative risk reduction ([2]; CURE trial, clopidogrel with aspirin vs placebo plus aspirin, unstable angina or non-ST segment elevation MI): 20%

CC(C)Cc1ccc(C(C)C(=O)O)cc1 (stereo not shown) [ibuprofen]
effect of concomitant administration on antiaggregatory activity of aspirin (platelets [3]; Catella-Lawson et al.): reduce the antiaggregatory activity of aspirin

CCCCCNC(=O)c1coc([C@H]2[C@@H](Cc3ccccc3CCC(=O)[O-])[C@@H]3CC[C@H]2O3)n1.[Na+] [ifetroban, [1S-(1α,2α,3α,4α)]-2-[[3-[4-[(pentylamino)carbonyl]-2-oxazolyl]-7-oxabicyclo[2.2.1]hept-2-yl]methyl]benzenepropanoic acid]
inhibition of thrombosis on a clopidogrel background ([4]; 30 nM to 1 μM spiked into whole blood of normal volunteers treated with clopidogrel 75 mg/day for 2 weeks, FIG. 4): inhibited thrombosis to the same extent as aspirin | interaction with antithrombotic activity of clopidogrel ([4]; FIG. 4): synergized with the antithrombotic activity of clopidogrel | antithrombotic activity versus aspirin ([4]; AERD patients, aspirin after desensitization, FIG. 7B): significant antithrombotic activity versus aspirin | antithrombotic activity versus aspirin ([4]; healthy volunteers, FIG. 7A): significant antithrombotic activity versus aspirin | anti-aggregatory activity, collagen-induced platelet aggregation (platelets [5]; AERD patients, FIG. 8B): significant anti-aggregatory activity | concentrations at which aspirin effects on collagen-induced platelet aggregation and thrombosis were reproduced (platelets [5]; AERD patients, FIG. 8B): > 100 nM | anti-aggregatory activity, collagen-induced platelet aggregation (platelets [5]; healthy volunteers, FIG. 8A): significant anti-aggregatory activity | concentrations at which aspirin effects on collagen-induced platelet aggregation and thrombosis were reproduced (platelets [5]; normal volunteers, FIG. 8A): > 100 nM | anti-aggregatory activity, arachidonic acid-induced platelet aggregation (platelets [6]): anti-aggregatory activity | antithrombotic activity in P2Y12 heterozygous animals [7]: profound inhibition | antithrombotic activity in wild type animals [7]: at least similar antithrombotic activity | levels of leukotrienes (leukotrienes): maintained constant

COc1ccc2c(c1)c(CC(=O)O)c(C)n2C(=O)c1ccc(Cl)cc1 [indomethacin]
effect on bleeding time prolongation activity of BM 13.177 promoted by dazoxiben [8]: blocked the ability of dazoxiben

O=C(O)CCCCO/N=C(/c1cccnc1)c1cccc(C(F)(F)F)c1 [ridogrel]
enhancing fibrinolytic efficacy of streptokinase ([2]; RAPT study, 907 patients with acute myocardial infarction): not found to be superior to aspirin | preventing new ischaemic events ([2]; RAPT study): may have been more efficacious than aspirin

CC(C)(C)N/C(=N\C#N)Nc1cccc(/C(=C\CCCC(=O)O)c2cccnc2)c1 [terbogrel, 5-hexenoic acid, 6-[3-[[(cyanoamino)[(1,1-dimethylethyl)amino]methylene]amino]phenyl]-6-(3-pyridinyl)-, (E-)]
antiaggregatory activities in aspirin-treated individuals (platelets [3]; Zimmermann et al.): additional antiaggregatory activities

ortho-acetylsalicylic acid [aspirin]
interaction with antithrombotic activity of clopidogrel ([4]; FIG. 4): synergized with the antithrombotic activity of clopidogrel | effect of prior aspirin treatment on dethrombotic activity of a TP antagonist (preformed thrombi; FIG. 5C): prevented by prior aspirin treatment | antithrombotic activity in P2Y12 heterozygous animals [7]: profound inhibition | antithrombotic activity in wild type animals [7]: at least similar antithrombotic activity | levels of leukotrienes (leukotrienes): increased | individuals developing gastroduodenal ulcers ([2]; 75-325 mg doses): 1 out of 10 | reduction in vascular events ([2]; Antithrombotic Trialist's Collaboration, overall): 22% | reduction in cardiovascular events [2, 9]: 15% | reduction in myocardial infarction [2, 9]: 36% | incidence of cardiovascular death ([2]; Primary Prevention Project, 100 mg/d, at-risk patients, reduced from 1.4%): 0.8% | reduction in adverse events ([2]; hundreds of randomized clinical trials, at-risk patients): 20-25% | asthmatic adults developing severe bronchoconstriction ([2]; oral challenge with aspirin or NSAID): 5-20% | effect on prolongation in occlusion time by U63,557a with L636,499 (coronary arteries): inhibited the prolongation in occlusion time
